Measured values published in patent publication US11766419B2, “Mebeverine as soluble epoxide hydrolase inhibitor” (Banasthali Vidyapith, priority 2021, dated 2023).

Target: T1, sEH (Homo sapiens, UniProt P34913)
T1 sequence (P34913 1-555): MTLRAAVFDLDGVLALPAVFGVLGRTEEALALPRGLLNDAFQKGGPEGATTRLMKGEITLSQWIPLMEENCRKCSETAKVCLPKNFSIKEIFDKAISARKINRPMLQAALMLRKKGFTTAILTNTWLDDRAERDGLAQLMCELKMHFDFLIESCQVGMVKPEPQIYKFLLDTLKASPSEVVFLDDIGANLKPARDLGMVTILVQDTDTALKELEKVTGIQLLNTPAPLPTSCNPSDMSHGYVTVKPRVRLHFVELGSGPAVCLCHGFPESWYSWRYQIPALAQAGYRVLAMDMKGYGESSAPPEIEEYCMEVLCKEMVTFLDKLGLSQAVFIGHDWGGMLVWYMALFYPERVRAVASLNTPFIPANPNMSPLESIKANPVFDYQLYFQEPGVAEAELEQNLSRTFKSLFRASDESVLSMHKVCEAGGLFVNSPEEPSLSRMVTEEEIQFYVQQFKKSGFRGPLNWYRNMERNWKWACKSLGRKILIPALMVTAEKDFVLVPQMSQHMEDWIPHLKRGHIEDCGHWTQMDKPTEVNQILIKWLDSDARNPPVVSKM
Assay: In vitro sEH activity assay (PHOME substrate, fluorescence)
Format: biochemical
Protocol: Hydrolysis of PHOME by sEH results in the release of cyanohydrins that further decomposes to cyanide ion and 6-methoxy-2-naphthaldehyde (highly fluorescent). The fluorescence was analyzed at an excitation and emission wavelength of 330 nm and 465 nm respectively.

With `C[C@H](CS)C(=O)N1CCC[C@H]1C(=O)O` [Captopril, captopril] the sEH activity (remaining enzyme activity) was 100% and the IC50 (sEH, PHOME substrate) was 693 nM.
